# Source: PubChem BioAssay (NCI)
#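 Test compounds were applied to cells in 96-well plates for 48 hours at 5 doses. The concentration for 50% growth inhibition is given as GI50. TGI: concentration producing complete growth inhibition.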
# How the values were obtained:
# Experiment in all cases: NCI-60 cell line screen, 48 h
# HT29 colon = tested on: HT29 colon
# SF-295 CNS = tested on: SF-295 CNS
# HCC-2998 colon = tested on: HCC-2998 colon
# SF-268 CNS = tested on: SF-268 CNS
# K-562 leukemia = tested on: K-562 leukemia
# MCF7 breast = tested on: MCF7 breast
# NCI-H23 lung = tested on: NCI-H23 lung
# 786-0 renal = tested on: 786-0 renal
# A549 NSCLC = tested on: A549 NSCLC
# HOP-92 NSCLC = tested on: HOP-92 NSCLC
Compound,GI50 (HT29 colon),TGI (HT29 colon),GI50 (SF-295 CNS),TGI (SF-295 CNS),GI50 (HCC-2998 colon),TGI (HCC-2998 colon),GI50 (SF-268 CNS),TGI (SF-268 CNS),GI50 (K-562 leukemia),TGI (K-562 leukemia),GI50 (MCF7 breast),TGI (MCF7 breast),GI50 (NCI-H23 lung),TGI (NCI-H23 lung),GI50 (786-0 renal),TGI (786-0 renal),GI50 (A549 NSCLC),TGI (A549 NSCLC),TGI (HOP-92 NSCLC),GI50 (HOP-92 NSCLC)
COc1ccccc1-n1c(-c2cc(O)ccc2C)cn2c3c(=O)[nH]c(=O)n(C)c3nc12,1.62 µM,8.12 µM,5.34 µM,> 100 µM,> 100 µM,> 100 µM,5.07 µM,> 100 µM,0.31 µM,> 100 µM,> 100 µM,> 100 µM,60.9 µM,> 100 µM,6.24 µM,> 100 µM,17.4 µM,> 100 µM,,
CN1CCCNc2c(c(=O)c2=O)NCCCN(C)CCCNc2c(c(=O)c2=O)NCCCN(C)CCCNc2c(c(=O)c2=O)NCCCN(C)CCCNc2c(c(=O)c2=O)NCCCN(C)CCCNc2c(c(=O)c2=O)NCCCN(C)CCCNc2c(c(=O)c2=O)NCCCN(C)CCCNc2c(c(=O)c2=O)NCCC1,9.87 µM,> 50 µM,5.52 µM,12.9 µM,7.18 µM,22.1 µM,1.82 µM,18.3 µM,,,6.52 µM,19.5 µM,,,4.29 µM,15.1 µM,6.05 µM,> 50 µM,,
CCOC(=O)N1CCc2cc(OC)c(OC)c3c2C1CC3=O (configuration not stated),,> 100 µM,,> 100 µM,,> 100 µM,,> 100 µM,,> 100 µM,,,,,,> 100 µM,,> 100 µM,> 100 µM,
CCOC(=O)C(=O)Nc1ccc(C)cc1C,,> 100 µM,,> 100 µM,,> 100 µM,,> 100 µM,,> 100 µM,,,,> 100 µM,,> 100 µM,,> 100 µM,> 100 µM,
COc1ccc(C2=NNC(=O)OC2c2ccccc2)cc1 (configuration not stated),,> 100 µM,,> 100 µM,,> 100 µM,,> 100 µM,,> 100 µM,,,,> 100 µM,,> 100 µM,,> 100 µM,> 100 µM,
Cn1c2c(c3ccccc31)C1CCCCC1C1C(=O)NC(=O)C21 (configuration not stated),,> 100 µM,,> 100 µM,,> 100 µM,,> 100 µM,,> 100 µM,,,,> 100 µM,,> 100 µM,,> 100 µM,,
Cc1cc2c(=O)n(-c3ccc(F)cc3)c(C)nc2c(C(=O)O)c1C,,> 100 µM,,> 100 µM,,> 100 µM,,> 100 µM,,> 100 µM,,,,> 100 µM,,> 100 µM,,> 100 µM,> 100 µM,
COc1cc(/C=C/c2cc(/C=C/c3ccc(O)c(OC)c3)n(-c3c(C)cccc3C)c(=O)n2)ccc1O,2.13 µM,4.71 µM,,,2.28 µM,9.15 µM,1.19 µM,11.5 µM,0.374 µM,> 100 µM,,,1.25 µM,3.98 µM,0.958 µM,3.41 µM,1.18 µM,7.6 µM,5.51 µM,2.07 µM
O=C(CC1(O)C(=O)Nc2ccccc21)c1ccccc1Cl (configuration not stated),,> 100 µM,,> 100 µM,,,,> 100 µM,,> 100 µM,,,,> 100 µM,,> 100 µM,,> 100 µM,> 100 µM,
Cc1ccc(NC(=O)c2cccc([N+](=O)[O-])c2O)c([N+](=O)[O-])c1,,69.9 µM,,32.8 µM,,29.5 µM,,54.9 µM,,> 100 µM,,,,27.6 µM,,37 µM,,68 µM,45.4 µM,
Cc1ccc(NC(=O)NC(=O)c2ccc([N+](=O)[O-])cc2[N+](=O)[O-])cc1Oc1ncc(Cl)cn1,,2.57 µM,,43.5 µM,,0.619 µM,,21.8 µM,,> 37.4 µM,,20.5 µM,,9.39 µM,,13.8 µM,,> 40.2 µM,,
CC(C)c1ccccc1NC(=O)C(=O)Cc1nc2ccccc2s1,,> 100 µM,,> 100 µM,,> 100 µM,,> 100 µM,,,,,,> 100 µM,,> 100 µM,,> 100 µM,> 100 µM,
COc1ccc(/C=C2\CCCCC2=O)cc1,,> 100 µM,,> 100 µM,,,,> 100 µM,,> 100 µM,,,,> 100 µM,,> 100 µM,,> 100 µM,,
C[C@]12CCC[C@H](Cl)C1(O)C[C@H](C(=O)O)CC2 (some centres not stated),,> 100 µM,,> 100 µM,,> 100 µM,,> 100 µM,,> 100 µM,,,,> 100 µM,,> 100 µM,,> 100 µM,> 100 µM,
CC(C)C1OC(=O)C=C1Sc1ccccc1 (configuration not stated),,> 100 µM,,> 100 µM,,> 100 µM,,> 100 µM,,> 100 µM,,> 100 µM,,,,> 100 µM,,> 100 µM,,
CN(C)c1ccc(C(=C2C=CC(=[N+](C)C)C=C2)c2ccc(N(C)C)cc2)cc1 (tested in a mixture with another compound),0.0411 µM,> 100 µM,0.0483 µM,0.396 µM,,1.53 µM,,1.29 µM,0.047 µM,2.86 µM,,,,,0.104 µM,1.02 µM,0.0326 µM,0.688 µM,0.714 µM,
CN1C2(c3ccccc3)c3c(-c4ccccc4)sc(-c4ccccc4)c3C1(c1ccccc1)C1C(=O)N(c3ccccc3)C(=O)C12 (configuration not stated),,> 100 µM,,> 100 µM,,> 100 µM,,> 100 µM,,> 100 µM,,,,> 100 µM,,> 100 µM,,> 100 µM,> 100 µM,
COc1cc2c(cc1OC)-c1cc3cc(OC)c(OC)cc3n1CC2,,56.3 µM,,> 100 µM,,> 100 µM,,> 100 µM,,> 100 µM,,,,> 100 µM,,66.6 µM,,> 100 µM,> 100 µM,
Cc1ccc(-c2nc(SCC(=O)O)n[nH]2)cc1,,> 100 µM,,> 100 µM,,> 100 µM,,> 100 µM,,> 100 µM,,,,> 100 µM,,> 100 µM,,> 100 µM,> 100 µM,
CN(C)c1ccc(N=Cc2c([O-])ccc3ccccc23)cc1.[C-]#[O+].[C-]#[O+].[Ir],19.2 µM,40.7 µM,20 µM,55 µM,18.8 µM,35.3 µM,22.5 µM,50.6 µM,37 µM,> 100 µM,,,15.3 µM,36.8 µM,25.1 µM,65.1 µM,31.8 µM,89.3 µM,37.3 µM,17.2 µM
